Patent publication US20250228873A1, “C25 R AND S ISOMERS OF AMINOSTEROLS AND METHODS OF MAKING AND USING THE SAME” (Enterin, Inc., priority 2022, published 2025)
Like-named read-outs stand apart in the source and are kept apart here. Each block holds one compound with its values, some of them ahead of it.

How the values were obtained:
[1] = tested on: stomach tissues; assay: Stomach RNA-sequencing, ENT-02 (MSI-1436) treatment and congruence with ENT-03 (Example 10); type: in vivo, mice; settings: stomach RNA-seq
Protocol: Samples of stomach tissues from the mice were analysed by RNA-sequencing on an Illumina platform.
To achieve these aims, data were subject to a quality control evaluation, differential expression and functional enrichment analyses, as well as a congruence analysis.
[…] At this threshold, differentially expressed genes were identified in all contrasts.
As mentioned previously, for statistical robustness, only those with an adjusted p-value <0.05 should be considered. […]
The amount of overlap is represented in FIGS. 28A-28D. For each comparison, the value in the plot represents the number of intersecting selected genes and the color represents the Jaccard index (the intersection over the union) for the two contrasts under consideration.
Scatter plots, upset plots, venn diagrams, hypergeometric tests and Spearman rank correlation tests were employed to assess the level of overlap as shown in FIGS. 15-27.

[2] = biological target: T1, PP2A Alpha/PP2R1A Complex (Homo sapiens, UniProt P67775); assay: Phosphatase panel, DiFMUP fluorescence assay; type: biochemical
T1 construct: purchased Recation Biology Inc

[3] = biological target: T2, PTPN1/PTP1B (Homo sapiens, UniProt P18031); assay: PTP1B inhibition, fluorescence time-course, 10-dose IC50 (Example 2); type: biochemical
T2 construct: The enzyme was the human truncated form (1-321), recombinantly produced in Escherichia coli; host or cells: Escherichia coli
T2 sequence (P18031 1-321): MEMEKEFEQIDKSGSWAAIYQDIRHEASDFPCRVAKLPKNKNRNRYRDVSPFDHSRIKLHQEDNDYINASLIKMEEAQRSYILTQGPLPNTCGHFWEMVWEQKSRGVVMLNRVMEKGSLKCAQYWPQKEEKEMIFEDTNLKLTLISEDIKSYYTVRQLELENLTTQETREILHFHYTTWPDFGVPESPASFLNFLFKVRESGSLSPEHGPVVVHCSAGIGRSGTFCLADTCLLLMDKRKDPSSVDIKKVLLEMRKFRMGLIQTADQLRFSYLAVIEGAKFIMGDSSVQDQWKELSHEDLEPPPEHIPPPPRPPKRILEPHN

[4] = biological target: T3, PTPN6/SHP1 (Homo sapiens, UniProt P29350); assay: Phosphatase panel, DiFMUP fluorescence assay; type: biochemical
T3 construct: purchased Recation Biology Inc

[5] = biological target: T4, PTPRC/CD45 (Homo sapiens, UniProt P08575); assay: Phosphatase panel, DiFMUP fluorescence assay; type: biochemical
T4 construct: purchased Recation Biology Inc
T4 sequence (P08575 26-1306): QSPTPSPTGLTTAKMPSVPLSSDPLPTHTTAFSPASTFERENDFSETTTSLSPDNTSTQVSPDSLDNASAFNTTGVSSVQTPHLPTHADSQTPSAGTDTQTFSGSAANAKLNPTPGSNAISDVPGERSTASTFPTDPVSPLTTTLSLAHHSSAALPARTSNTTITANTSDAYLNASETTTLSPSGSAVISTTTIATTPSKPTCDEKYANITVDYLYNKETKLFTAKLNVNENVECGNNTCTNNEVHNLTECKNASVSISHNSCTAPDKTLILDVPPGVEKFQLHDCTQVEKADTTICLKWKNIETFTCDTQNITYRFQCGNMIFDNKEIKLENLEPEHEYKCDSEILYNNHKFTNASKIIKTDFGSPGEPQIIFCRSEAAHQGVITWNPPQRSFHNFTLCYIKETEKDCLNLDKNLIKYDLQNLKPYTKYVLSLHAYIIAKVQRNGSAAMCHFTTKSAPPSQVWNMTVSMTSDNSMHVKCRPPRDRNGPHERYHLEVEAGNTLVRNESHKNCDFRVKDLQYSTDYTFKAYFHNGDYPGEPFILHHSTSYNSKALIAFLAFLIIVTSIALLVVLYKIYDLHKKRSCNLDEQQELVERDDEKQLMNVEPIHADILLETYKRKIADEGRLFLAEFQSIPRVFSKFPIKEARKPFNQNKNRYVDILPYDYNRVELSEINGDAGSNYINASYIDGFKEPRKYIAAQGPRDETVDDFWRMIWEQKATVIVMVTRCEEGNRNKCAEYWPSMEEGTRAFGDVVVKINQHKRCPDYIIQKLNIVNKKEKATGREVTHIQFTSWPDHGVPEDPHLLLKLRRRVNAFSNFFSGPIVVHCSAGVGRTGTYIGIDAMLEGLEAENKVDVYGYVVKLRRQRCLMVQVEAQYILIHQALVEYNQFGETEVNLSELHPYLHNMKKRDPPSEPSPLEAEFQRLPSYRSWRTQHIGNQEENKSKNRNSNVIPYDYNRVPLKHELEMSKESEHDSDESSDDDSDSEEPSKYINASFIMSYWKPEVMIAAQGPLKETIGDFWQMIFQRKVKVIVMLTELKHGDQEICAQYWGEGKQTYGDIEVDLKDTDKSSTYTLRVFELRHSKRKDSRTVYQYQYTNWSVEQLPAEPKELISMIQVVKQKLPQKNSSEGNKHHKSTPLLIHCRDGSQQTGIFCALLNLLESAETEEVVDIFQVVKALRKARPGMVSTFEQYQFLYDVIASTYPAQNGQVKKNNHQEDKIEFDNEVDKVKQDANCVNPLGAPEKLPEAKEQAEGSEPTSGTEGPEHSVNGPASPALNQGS

[6] = biological target: T5, PTPN2/TC-PTP (Homo sapiens, UniProt P17706); assay: Phosphatase panel, DiFMUP fluorescence assay; type: biochemical
T5 construct: purchased Recation Biology Inc
T5 sequence (P17706 1-415): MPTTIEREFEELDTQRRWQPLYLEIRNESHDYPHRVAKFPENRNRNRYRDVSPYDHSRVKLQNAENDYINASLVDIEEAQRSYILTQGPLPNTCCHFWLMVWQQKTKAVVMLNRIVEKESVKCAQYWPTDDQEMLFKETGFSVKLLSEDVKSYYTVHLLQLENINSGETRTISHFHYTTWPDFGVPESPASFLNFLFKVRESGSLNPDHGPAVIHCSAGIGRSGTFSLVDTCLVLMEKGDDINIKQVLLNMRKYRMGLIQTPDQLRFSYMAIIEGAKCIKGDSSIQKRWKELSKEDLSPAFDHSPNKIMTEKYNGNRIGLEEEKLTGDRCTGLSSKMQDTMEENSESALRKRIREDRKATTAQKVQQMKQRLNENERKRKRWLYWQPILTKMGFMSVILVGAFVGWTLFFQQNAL

[7] = biological target: T6, PTPN12/PTP-PEST (Homo sapiens, UniProt Q05209); assay: Phosphatase panel, DiFMUP fluorescence assay; type: biochemical
T6 construct: purchased Recation Biology Inc
T6 sequence (Q05209 1-780): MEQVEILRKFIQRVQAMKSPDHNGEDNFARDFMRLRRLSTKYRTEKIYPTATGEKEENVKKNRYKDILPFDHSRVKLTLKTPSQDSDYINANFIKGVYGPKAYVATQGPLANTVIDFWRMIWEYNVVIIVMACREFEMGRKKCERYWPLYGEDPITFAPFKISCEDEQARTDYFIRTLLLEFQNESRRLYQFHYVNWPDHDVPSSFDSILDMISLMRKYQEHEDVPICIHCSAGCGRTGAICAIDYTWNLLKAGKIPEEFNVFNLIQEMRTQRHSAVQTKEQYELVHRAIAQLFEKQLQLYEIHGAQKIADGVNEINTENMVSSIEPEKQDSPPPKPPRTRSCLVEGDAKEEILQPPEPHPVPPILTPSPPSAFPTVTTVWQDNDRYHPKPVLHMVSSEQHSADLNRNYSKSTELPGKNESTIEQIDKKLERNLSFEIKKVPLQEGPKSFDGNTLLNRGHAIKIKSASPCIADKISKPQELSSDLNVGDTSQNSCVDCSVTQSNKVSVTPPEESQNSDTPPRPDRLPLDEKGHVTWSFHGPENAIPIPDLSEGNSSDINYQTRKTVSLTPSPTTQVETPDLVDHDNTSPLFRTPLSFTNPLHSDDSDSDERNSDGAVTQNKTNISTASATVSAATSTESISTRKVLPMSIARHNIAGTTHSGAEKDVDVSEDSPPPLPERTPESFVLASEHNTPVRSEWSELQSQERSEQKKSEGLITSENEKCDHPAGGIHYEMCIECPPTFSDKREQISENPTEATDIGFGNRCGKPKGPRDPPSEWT

[8] = biological target: Tyrosine-protein phosphatase non-receptor type 11 (Homo sapiens, UniProt Q06124); assay: Phosphatase panel, DiFMUP fluorescence assay; type: biochemical
Tyrosine-protein phosphatase non-receptor type 11, sequence (Q06124 247-517): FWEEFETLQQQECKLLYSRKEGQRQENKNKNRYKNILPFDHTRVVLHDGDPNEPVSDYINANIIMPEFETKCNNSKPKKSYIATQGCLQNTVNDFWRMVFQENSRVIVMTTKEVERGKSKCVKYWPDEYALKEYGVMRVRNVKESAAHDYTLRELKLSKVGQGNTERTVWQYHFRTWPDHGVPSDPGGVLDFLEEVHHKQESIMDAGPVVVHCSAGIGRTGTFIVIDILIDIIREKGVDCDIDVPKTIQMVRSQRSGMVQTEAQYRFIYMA

T1 sequence (P67775 whole entry): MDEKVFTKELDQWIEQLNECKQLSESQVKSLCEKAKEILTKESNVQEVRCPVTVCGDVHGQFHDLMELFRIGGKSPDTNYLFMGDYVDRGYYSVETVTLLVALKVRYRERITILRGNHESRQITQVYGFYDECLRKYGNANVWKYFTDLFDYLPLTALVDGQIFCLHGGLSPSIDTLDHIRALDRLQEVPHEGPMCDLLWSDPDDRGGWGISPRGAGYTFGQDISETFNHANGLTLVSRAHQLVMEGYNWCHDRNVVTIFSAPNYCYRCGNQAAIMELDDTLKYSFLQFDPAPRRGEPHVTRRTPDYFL
T1 sequence (P30153 whole entry partner): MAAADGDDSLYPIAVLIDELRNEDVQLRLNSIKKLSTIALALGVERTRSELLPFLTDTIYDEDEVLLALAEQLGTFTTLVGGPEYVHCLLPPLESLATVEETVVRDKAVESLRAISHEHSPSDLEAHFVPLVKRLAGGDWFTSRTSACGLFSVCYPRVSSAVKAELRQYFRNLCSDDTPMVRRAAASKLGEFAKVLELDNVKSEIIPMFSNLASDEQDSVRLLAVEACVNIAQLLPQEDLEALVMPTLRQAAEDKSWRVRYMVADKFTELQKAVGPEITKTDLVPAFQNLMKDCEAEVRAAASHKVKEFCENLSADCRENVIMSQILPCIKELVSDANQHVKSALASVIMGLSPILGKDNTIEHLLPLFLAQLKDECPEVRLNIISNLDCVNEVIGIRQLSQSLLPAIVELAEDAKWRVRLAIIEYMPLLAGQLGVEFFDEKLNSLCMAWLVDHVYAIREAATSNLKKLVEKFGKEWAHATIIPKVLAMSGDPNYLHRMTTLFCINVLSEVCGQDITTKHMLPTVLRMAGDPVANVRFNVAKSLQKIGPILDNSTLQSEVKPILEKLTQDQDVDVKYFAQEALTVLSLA
T3 sequence (P29350 whole entry): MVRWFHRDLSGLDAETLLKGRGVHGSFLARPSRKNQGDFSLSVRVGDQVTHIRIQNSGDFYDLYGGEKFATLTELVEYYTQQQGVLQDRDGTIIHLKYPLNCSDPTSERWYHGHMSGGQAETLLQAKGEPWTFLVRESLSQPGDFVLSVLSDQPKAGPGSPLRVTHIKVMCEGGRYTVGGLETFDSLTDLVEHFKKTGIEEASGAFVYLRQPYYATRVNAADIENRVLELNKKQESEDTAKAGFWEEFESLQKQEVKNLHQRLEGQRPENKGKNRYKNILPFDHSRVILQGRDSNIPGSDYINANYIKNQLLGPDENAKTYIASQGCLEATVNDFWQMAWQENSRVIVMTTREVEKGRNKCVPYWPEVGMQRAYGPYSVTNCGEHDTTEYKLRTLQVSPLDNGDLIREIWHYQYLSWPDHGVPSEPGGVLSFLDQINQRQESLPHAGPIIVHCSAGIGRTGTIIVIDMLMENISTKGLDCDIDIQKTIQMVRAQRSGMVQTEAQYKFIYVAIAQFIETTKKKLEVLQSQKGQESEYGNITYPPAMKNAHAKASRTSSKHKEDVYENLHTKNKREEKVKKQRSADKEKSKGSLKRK

SMILES: CC(C)[C@@H](CC[C@@H](C)[C@H]1CC[C@H]2[C@@H]3[C@H](O)C[C@H]4C[C@@H](NCCCNCCCCN)CC[C@]4(C)[C@H]3CC[C@]12C)OS(=O)(=O)O (single isomer, unassigned) [Ent-01, Squalamine]
number of significant features, down-regulated, fold change threshold 4x ([1]; old vs young mice, both treated, threshold 4x): 69 | number of significant features, down-regulated, fold change threshold 8x ([1]; old vs young mice, both treated, threshold 8x): 36 | number of significant features, down-regulated, fold change threshold 16x ([1]; old vs young mice, both treated, threshold 16x): 27 | number of significant features, down-regulated, fold change threshold 4x ([1]; treatment vs control, old mice, threshold 4x): 66 | number of significant features, down-regulated, fold change threshold 8x ([1]; treatment vs control, old mice, threshold 8x): 25 | number of significant features, down-regulated, fold change threshold 16x ([1]; treatment vs control, old mice, threshold 16x): 11 | number of significant features, down-regulated, fold change threshold 8x ([1]; treatment vs control, young mice, threshold 8x): 47 | number of significant features, down-regulated, fold change threshold 16x ([1]; treatment vs control, young mice, threshold 16x): 12 | number of significant features, up-regulated, fold change threshold 4x ([1]; treatment vs control, young mice, up-regulated, threshold 4x): 58 | number of significant features, up-regulated, fold change threshold 8x ([1]; treatment vs control, young mice, up-regulated, threshold 8x): 38 | number of significant features, up-regulated, fold change threshold 16x ([1]; treatment vs control, young mice, up-regulated, threshold 16x): 28

SMILES: CC1(C(=O)O)C2CCC(O2)C1(C)C(=O)O (centres unmarked) [Canthardic Acid, Cantharidic acid, reference compound]
IC50 ([2]; Compound IC50 (M) PP2A Alpha/PP2R1A Complex, Table 5B): 1.7e-08 M | IC50 ([2]; inhibitory activity PP2A Alpha/PP2R1A Complex, Table 18A): 2.78e-08 M | IC50 ([2]; inhibitory activity PP2A Alpha/PP2R1A Complex, Table 19A): 3.01e-08 M

Slope (signal/min) ([3]; Conc 1.00E−04 M): −161 signal/min | Slope (signal/min) ([3]; Conc 1.11E−05 M): −319 signal/min | Slope (signal/min) ([3]; Conc 1.23E−06 M): 34760 signal/min | Slope (signal/min) ([3]; Conc 1.37E−07 M): 40150 signal/min | Slope (signal/min) ([3]; Conc 1.52E−08 M): 43819 signal/min | Slope (signal/min) ([3]; Conc 3.33E−05 M): −362 signal/min | Slope (signal/min) ([3]; Conc 3.70E−06 M): 8429 signal/min | Slope (signal/min) ([3]; Conc 4.12E−07 M): 41755 signal/min | Slope (signal/min) ([3]; Conc 4.57E−08 M): 43697 signal/min | Slope (signal/min) ([3]; Conc 5.08E−09 M): 44655 signal/min | HILLSLOPE ([3]; Table 5A): −2.50
SMILES: [2H]C([2H])([2H])C([2H])(C(CC[C@@H](C)[C@H]1CCC2C3C(CC[C@@]21C)[C@@]1(C)CC[C@H](NCCCNCCCCNCCCN)C[C@@H]1C[C@H]3O)OS(=O)(=O)O)C([2H])([2H])[2H] (some centres unmarked) [Compound D7-1436]

SMILES: CCc1oc2cc(S(=O)(=O)Nc3ccc(S(=O)(=O)Nc4nccs4)cc3)ccc2c1C(=O)c1cc(Br)c(O)c(Br)c1 [PTP1B Inhibitor, 3-(3,5-Dibromo-4-hydroxy-benzoyl)-2-ethyl-benzofuran-6-sulfonicacid-(4-(thiazol-2-ylsulfamyl)-phenyl)-amide, reference compound]
IC50 ([4]; Table 5B, read-out: Compound IC50 (M) PTPN6/SHP1): 5.75e-06 M | IC50 ([4]; Table 18A, read-out: inhibitory activity PTPN6/SHP1): 3.47e-06 M | IC50 ([4]; Table 19A, read-out: inhibitory activity PTPN6/SHP1): 3.67e-06 M | IC50 ([5]; Table 5B, read-out: Compound IC50 (M) PTPRC/CD45): 5.7e-05 M | IC50 ([5]; Table 18A, read-out: inhibitory activity PTPRC/CD45): 2.8e-05 M | IC50 ([5]; Table 19A, read-out: inhibitory activity PTPRC/CD45): 2.66e-05 M | IC50 ([6]; Table 5C, read-out: Compound IC50 (M) PTPN2/TC-PTP): 1.34e-05 M | IC50 ([6]; Table 18B, read-out: inhibitory activity PTPN2/TC-PTP): 7.53e-06 M | IC50 ([6]; Table 19B, read-out: inhibitory activity PTPN2/TC-PTP): 5.86e-06 M | IC50 ([7]; Table 5C, read-out: Compound IC50 (M) PTPN12/PTP-PEST): 2.99e-05 M | IC50 ([7]; Table 18B, read-out: inhibitory activity PTPN12/PTP-PEST): 2.16e-06 M | IC50 ([7]; Table 19B, read-out: inhibitory activity PTPN12/PTP-PEST): 1.21e-06 M | IC50 [8]: 1.82 µM
